Data as given in ChEMBL document CHEMBL1201862, “PubChem BioAssay data set” (2004).
Activity calls are given as the source filed them.

Test system: not listed separately
Experiment: NIH3T3 cell viability loss – ATP luminescence, mouse fibroblasts, counter-screen, dose response (AID 2010);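 also: cells exposed to compound for about 90 hours before reading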
Assay type: functional, cell-based
Conditions: not given

Row | Structure (SMILES) | EC50
1 | CCOC(=O)C1=C(N)Oc2ccc3ccccc3c2C1c1cccnc1 (stereo unspecified) | > 60 µM (not active)
2 | Cc1c(Cl)cccc1NC(=O)CCCn1cnc([N+](=O)[O-])n1 | > 60 µM (not active)
3 | CCCNC(=O)c1ccc(N2CCC3(CC2)CC(c2cccc(Br)c2)=NO3)c(NC(=O)c2ccccc2)c1 | > 60 µM (not active)
4 | Cc1ccc(C(=O)NC(=S)Nc2ccc(CN3CCCCC3)cc2)c(C)c1 | 15.8 µM (active)

Test system: not listed separately
Experiment: Trypanosoma cruzi growth suppression in host cells – NIH3T3 host cells, beta-gal luminescence, confirmation (AID 2044);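 also: intracellular parasites grown in NIH/3T3 mouse fibroblasts as host cells; luminescent beta-galactosidase reporter signal from transgenic T. cruzi replicating inside host cells; inhibitors lower the luminescence signal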
Assay type: functional, cell-based
Conditions: not given

Row | Structure (SMILES) | EC50
5 | CCOC(=O)C1=C(N)Oc2ccc3ccccc3c2C1c1cccnc1 (stereo unspecified) | 0.243 µM (active)
6 | Cc1c(Cl)cccc1NC(=O)CCCn1cnc([N+](=O)[O-])n1 | 0.131 µM (active)
7 | CCCNC(=O)c1ccc(N2CCC3(CC2)CC(c2cccc(Br)c2)=NO3)c(NC(=O)c2ccccc2)c1 | 2.5 µM (active)
8 | Cc1ccc(C(=O)NC(=S)Nc2ccc(CN3CCCCC3)cc2)c(C)c1 | 0.98 µM (active)

Molecular target: Cytochrome P450 2C19 (Homo sapiens, UniProt P33261)
Experiment: Cytochrome panel assay with activity outcomes. Panel member name: p450-cyp2c19 Compounds with AC50 equal or less than 10 uM are considered active
Assay type: functional
Conditions: not given

Cytochrome P450 2C19, sequence (P33261 whole entry): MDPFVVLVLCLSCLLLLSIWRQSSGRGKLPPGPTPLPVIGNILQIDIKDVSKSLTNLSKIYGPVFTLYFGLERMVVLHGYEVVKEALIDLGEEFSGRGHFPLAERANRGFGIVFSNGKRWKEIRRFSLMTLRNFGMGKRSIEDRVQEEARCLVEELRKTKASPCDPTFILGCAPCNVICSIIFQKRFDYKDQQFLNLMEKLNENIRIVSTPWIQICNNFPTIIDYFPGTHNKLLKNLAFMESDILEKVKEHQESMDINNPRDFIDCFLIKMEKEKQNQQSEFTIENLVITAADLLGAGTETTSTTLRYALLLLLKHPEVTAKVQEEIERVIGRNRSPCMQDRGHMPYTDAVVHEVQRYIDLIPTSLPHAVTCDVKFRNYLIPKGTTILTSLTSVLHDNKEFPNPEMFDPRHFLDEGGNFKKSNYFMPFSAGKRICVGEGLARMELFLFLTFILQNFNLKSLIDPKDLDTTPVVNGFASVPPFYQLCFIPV

Row | Structure (SMILES) | AC50
9 | O=[As](O)(O)c1ccc2nc3cc([As](=O)(O)O)ccc3nc2c1 | inconclusive
10 | CCOC(=O)C1CCN(C(=O)C2CCN(S(=O)(=O)N3CCCC3)CC2)CC1 | inconclusive

Same assay, conditions: read-out: AC50

Row | AC50 | Structure (SMILES)
11 | 39.8 µM (inconclusive) | CCNc1ncc2nc(CCc3ccccc3)c(=O)n(C[C@H]3CCCO3)c2n1
12 | 0.0126 µM (inconclusive) | COc1cccc([C@@H]2Oc3ccc(OC)cc3/C(=N/O[C@@H](C)CN3CCCCc4nc(C)c(C)cc43)[C@@H]2O)c1
13 | 39.8 µM (inconclusive) | CCc1cccc2nc3c(c([Si](C)(C)C)c12)Cn1c-3cccc1=O

The next lines start with the molecule.

Row | Structure (SMILES) | AC50
14 | CCC(=O)Nc1ccc2c(c1)C(=O)c1ccccc1C2=O | 7.94 µM (inconclusive)
15 | COCCNc1ncnc2ccc(-c3ccc(N(C)C)cc3)cc12 | 25.1 µM (inconclusive)
16 | Cc1cc(NC(=O)c2cccc(F)c2)no1 | 31.6 µM (inconclusive)
17 | CC(C)(C)c1ccc(C(=O)NCCC(=O)NCc2ccco2)cc1 | 7.94 µM (inconclusive)
18 | FC(F)(F)c1n[nH]c(SCc2ccc(Cl)cc2)n1 | 2.51 µM (inconclusive)
19 | Clc1ccc(-c2nc3ncccn3c2Nc2ccc3c(c2)OCCO3)cc1 | 7.08 µM (inconclusive)
20 | Cc1ccc(N(C(=O)C(F)(F)F)C(C(=O)NC2CCCCC2)c2cccs2)cc1C (stereo unspecified) | 0.0355 µM (inconclusive)
21 | CCCNC1=NC(=O)N(C)C(=O)/C1=N/O | 28.2 µM (inconclusive)

Molecular target: T1, Rac GTPase-activating protein 1 (Homo sapiens, UniProt Q9H0H5)
T1 sequence (Q9H0H5 whole entry): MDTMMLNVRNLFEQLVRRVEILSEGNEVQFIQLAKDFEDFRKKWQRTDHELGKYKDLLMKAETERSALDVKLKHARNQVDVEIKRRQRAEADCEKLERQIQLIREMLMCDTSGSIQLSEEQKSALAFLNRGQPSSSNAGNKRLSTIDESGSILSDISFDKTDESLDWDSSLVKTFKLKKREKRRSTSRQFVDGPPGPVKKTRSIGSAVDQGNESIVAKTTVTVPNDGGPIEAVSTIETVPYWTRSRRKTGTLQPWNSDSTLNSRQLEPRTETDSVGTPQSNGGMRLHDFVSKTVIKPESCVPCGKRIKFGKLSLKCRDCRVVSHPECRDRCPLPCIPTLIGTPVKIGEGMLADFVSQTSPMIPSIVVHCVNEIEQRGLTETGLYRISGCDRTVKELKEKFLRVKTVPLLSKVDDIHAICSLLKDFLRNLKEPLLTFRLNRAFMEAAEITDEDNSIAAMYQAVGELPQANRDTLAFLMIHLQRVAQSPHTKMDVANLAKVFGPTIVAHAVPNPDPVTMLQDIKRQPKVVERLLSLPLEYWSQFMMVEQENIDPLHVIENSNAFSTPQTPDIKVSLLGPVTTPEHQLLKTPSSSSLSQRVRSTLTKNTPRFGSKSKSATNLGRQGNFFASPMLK
Experiment: blockers of MgcRacGAP-driven Rac1 GTP hydrolysis – biochemical, ADP Hunter fluorescence, primary and confirmatory, confirmation (AID 624330)
Assay type: functional
Conditions: not given

Row | IC50 | Structure (SMILES)
22 | 41.4 µM (active) | Clc1ccc(CNc2ccc(N3CCN(Cc4ccccc4)CC3)cc2)cc1
23 | 133 µM (active) | COc1cc(CN2CCC(C(=O)NC3CCCC3)CC2)ccc1O
24 | 19.5 µM (active) | Cn1c(=O)c2nc(S)n(Cc3ccccc3)c2n(C)c1=O
25 | 65.1 µM (active) | COc1ccc(NC2CCCN(C(=O)CCN3Cc4ccccc4C3=O)C2)cc1 (stereo unspecified)
26 | 342 µM (active) | CCOC(=O)C1CCN(Cc2cccc(Oc3ccccc3)c2)CC1

The next lines start with the molecule.

Row | Structure (SMILES) | IC50
27 | O=C(Oc1ccc2c(c1)OCO2)c1ccncc1 | 50.5 µM (active)
28 | COc1ccc(C(=O)CCC(=O)Nc2cc(Cl)c(O)c(Cl)c2)cc1 | 118 µM (active)
29 | C=CCN1C(=O)CS/C1=N/c1ccc(O)cc1 | 25.8 µM (active)
30 | Brc1csc(/C=N\c2ccc3c(c2)OCCOCCOCCOCCO3)c1 | 75.2 µM (active)

Molecular target: Cytochrome P450 2D6 (Homo sapiens, UniProt P10635);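 also: CYP2D6 member of a cytochrome P450 panel assay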
Conditions: not given

Cytochrome P450 2D6, sequence (P10635 whole entry): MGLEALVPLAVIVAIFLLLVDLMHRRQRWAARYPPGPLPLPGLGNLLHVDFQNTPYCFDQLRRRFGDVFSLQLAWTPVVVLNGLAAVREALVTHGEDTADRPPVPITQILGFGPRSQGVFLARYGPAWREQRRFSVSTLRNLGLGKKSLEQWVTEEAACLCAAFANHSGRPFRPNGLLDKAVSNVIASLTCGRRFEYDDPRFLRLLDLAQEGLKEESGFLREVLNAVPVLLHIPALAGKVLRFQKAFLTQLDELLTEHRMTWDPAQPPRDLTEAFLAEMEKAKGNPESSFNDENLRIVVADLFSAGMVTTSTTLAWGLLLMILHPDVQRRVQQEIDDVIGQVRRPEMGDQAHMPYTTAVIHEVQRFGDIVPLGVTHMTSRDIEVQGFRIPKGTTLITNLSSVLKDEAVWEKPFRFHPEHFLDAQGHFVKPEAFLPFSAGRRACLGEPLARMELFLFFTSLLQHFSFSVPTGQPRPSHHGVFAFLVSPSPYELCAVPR

Row | AC50 | Structure (SMILES)
31 | 12.6 µM (inconclusive) | COc1ccc(NC(=O)N2CC3(CCN(C(C)=O)CC3)C2)cc1
32 | 20 µM (inconclusive) | COc1ccccc1CN1CCCC2(CCNCC2)C1
33 | 3.16 µM (inconclusive) | COc1cccc([C@@H]2Oc3ccc(OC)cc3/C(=N/O[C@@H](C)CN3CCCCc4nc(C)c(C)cc43)[C@@H]2O)c1
34 | 39.8 µM (inconclusive) | CCc1cccc2nc3c(c([Si](C)(C)C)c12)Cn1c-3cccc1=O

Second part, the molecule before the results:

Row | Structure (SMILES) | AC50
35 | COCCNc1ncnc2ccc(-c3ccc(N(C)C)cc3)cc12 | 20 µM (inconclusive)
36 | CC(C)(C)c1ccc(C(=O)NCCC(=O)NCc2ccco2)cc1 | 22.4 µM (inconclusive)
37 | Clc1ccc(-c2nc3ncccn3c2Nc2ccc3c(c2)OCCO3)cc1 | 31.6 µM (inconclusive)
38 | O=C1/C(=C\c2ccccn2)SC(=S)N1Nc1ncc(C(F)(F)F)cc1Cl | 17.8 µM (inconclusive)
39 | CCc1nnc(NC(=O)C2Cc3ccccc3CN2S(=O)(=O)c2ccc(C)cc2)s1 (stereo unspecified) | 15.8 µM (inconclusive)
40 | CCCNC1=NC(=O)N(C)C(=O)/C1=N/O | 39.8 µM (inconclusive)
41 | Cc1ccc(SCCCn2cnc3ccccc3c2=O)cc1 | 1 µM (inconclusive)
